Assay results: patent US20110280940A1, “Di-Vanilloyl And Tri-Vanilloyl Derivatives For Use In Anti-Cancer Therapy” (priority 2008, published 2011)

How the values were obtained:
Erk2 = Erk2 (Rattus norvegicus, UniProt P63086); assay: Kinase activity assay, Erk2; assay type: biochemical; settings: 10 μM, 1% DMSO, 15 μM ATP; residual activity
Protocol: Buffer A: 10 mM MgCl2, 1 mM EGTA, 1 mM DTT, 25 mM Tris-HCl pH 7.5, 50 μg heparin/ml. Buffer C: 60 mM β-glycerophosphate, 15 mM p-nitrophenylphosphate, 25 mM Mops (pH 7.2), 5 mM EGTA, 15 mM MgCl2, 1 mM DTT, 1 mM sodium vanadate, 1 mM phenyl phosphate.
Kinase activities were assayed in Buffer A or C, at 30° C., at a final ATP concentration of 15 μM. Blank values were subtracted and activities expressed in % of the maximal activity, i.e. in the absence of inhibitors. Controls were performed with appropriate dilutions of DMSO.
Erk2 (rat, recombinant) was assayed as described for CDK1 but using the specific substrate Ets1 (amino acids 1-138) in buffer A.

WI38 normal fibroblasts = assay: Cellular imaging (quantitative videomicroscopy), global growth ratio, WI38; assay type: cell-based, human; settings: 50 μM, 72 h
Excerpt: As the MTT test is based on the mitochondria functions, we also investigated the effects of the di- and tri-vanilloyl derivatives according to the invention on cell proliferation, migration and morphology by means of a cellular imaging approach (Debeir et al., Cytometry 60:29-40, 2004; Debeir et al., IEEE Trans Med Imaging 24:697-711, 2005) either in the human U373-MG glioma cell line, which is apoptosis-resistant but autophagy-sensitive (Lefranc F et al., Neurosurgery 2008) and in the human A549 non-small-cell-lung cancer cell line, which is apoptosis-resistant and autophagy-resistant (Mijatovic T et al., Neoplasia 2006, May; 8(5):402-12).
Investigations have also been performed in human normal fibroblasts (WS1 and WI38—see Tables 4 and 5). Cellular imaging relied on the use of computer-assisted phase-contrast microscopy making possible to film the behaviour of living cells in culture dishes for several days. […]
The behaviour of the cells, in terms of morphology, growth and death were thus investigated. The effect on the overall growth was measured by counting the number of cells on the first (0 h) and the last image (72 h) of each film. […] The ratio GGRtreated cells/GGRcontrol cells, was further calculated thereby obtaining a value that describes the effect of compounds of the present invention on the overall cell growth. […]

250 protein kinases = assay: Kinase inhibition profile of DLT11 at 20 μM (33 PanQinase); assay type: biochemical, human; settings: out of 250 kinases
Protocol: The kinase inhibition profile of DLT11 at 20 μM was determined using 250 protein kinases. Residual activity values were measured by testing each compound at one concentration in duplicate in each kinase assay. A radiometric protein kinase assay (33 PanQinase®Activity Assay) was used for measuring the kinase activity of 250 protein kinases. All kinase assays were performed in 96-well flashPlates™ from Perkin Elmer (Boston, Mass., USA) in a 50 μl reaction volume. The reaction cocktail was pipetted in 4 steps in the following order: • 10 μl of non-radioactive ATP solution (in H2O) • 25 μl of assay buffer/[γ-33P]-ATP mixture • 5 μl of test sample in 10% DMSO • 10 μl of enzyme/substrate mixture […]
Incorporation of ^33Pi (counting of “cpm”) was determined with a microplate scintillation counter (Microbeta, Wallac).
For each kinase, the median value of the cpm of three wells with complete reaction cocktails, but without kinase, was defined as “low control” (n=3). This value reflects unspecific binding of radioactivity to the plate in the absence of protein kinase but in the presence of the substrate. […] The residual activity (in %) for each compound well was calculated by using the following formula: Res. Activity (%)=100×[(cpm of compound−low control)/(high control−low control)] […]

Sequence of Erk2 (P63086 whole entry): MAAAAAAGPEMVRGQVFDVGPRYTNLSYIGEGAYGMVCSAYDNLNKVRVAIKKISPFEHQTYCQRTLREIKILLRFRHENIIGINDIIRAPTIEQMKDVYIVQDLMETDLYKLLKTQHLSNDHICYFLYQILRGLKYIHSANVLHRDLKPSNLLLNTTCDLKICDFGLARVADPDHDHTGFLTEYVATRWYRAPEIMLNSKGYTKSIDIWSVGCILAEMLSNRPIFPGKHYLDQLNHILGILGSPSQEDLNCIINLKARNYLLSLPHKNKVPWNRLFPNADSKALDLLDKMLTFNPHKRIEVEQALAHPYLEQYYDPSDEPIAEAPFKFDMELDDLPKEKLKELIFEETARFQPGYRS

SMILES | % ENZYMATIC ACTIVITY, Erk2 (Erk2) | Global Grow Ratio Treated/Ct (GGR T/Ct) determined by Video Quantitative microscopy, WI38 (WI38 normal fibroblasts) | number of kinases that had their activity inhibited (250 protein kinases)
COc1cc(C(=O)OCCOC(=O)c2ccc(O)c(OC)c2)ccc1O [DLT1, Ethane-1,2-diyl bis-(4-hydroxy-3-methoxybenzoate)] | 99% | 0.8 | –
COc1cc(C(=O)OCCCCCCOC(=O)c2ccc(O)c(OC)c2)ccc1O [DLT11, Hexane-1,6-diyl bis-(4-hydroxy-3-methoxybenzoate)] | – | – | 19
